Measurements: patent EP1683514B1, “Process for the preparation of concentrated suspensions of drugs and kit thereof” (Eratech S.r.l., priority 2005, dated 2006)

Tests used:
[1] = Purity test after β or γ irradiation (degradation of the pharmaceutical substance); assay type: physicochemical; conditions: powder
Procedure: A test of microbial count was then carried out on the irradiated suspensions to determine if a satisfactory sterility was achieved. A purity test was also carried out to determine if any degradation of the pharmaceutical substance budesonide was provoked by the irradiation treatment. As a comparison, a test of microbial count and purity was carrier out also on a sample of micronized budesonide powder. A test of microbial count was then carried out on the irradiated suspensions to determine if a satisfactory sterility was achieved. A purity test was also carried out to determine if any degradation of the pharmaceutical substance BDP was provoked by the irradiation treatment. As a comparison, a test of microbial count and purity was carrier out also on a sample of micronized BDP powder.

[2] = Particle size distribution of the micronized powder; assay type: physicochemical
Procedure: Micronized Beclomethasone Dipropionate (BDP) powder was added slowly under stirring the solution so obtained. The micronized powder had the following particle size distribution: d(0.1) 0.44 µm, d(0.5) 1.13 µm e d(0.9) 2.42 µm.
Micronized Budesonide powder was added slowly under stirring the solution so obtained. The micronized powder had the following particle size distribution: d(0.1) 0.50 µm, d(0.5) 1.39µm; d(0.9) 3.15 µm.
180 mg of BDP micronized powder were added to the solution so prepared. PSD of the powder was: d(0.1) 0.44 µm, d(0.5) 1.13 µm e d(0.9) 2.42 µm, namely the same PSD of the BDP powder used to prepare the concentrated suspensions of examples 1 - 4.

`CCC(=O)OCC(=O)[C@@]1(OC(=O)CC)[C@@H](C)C[C@H]2[C@@H]3CCC4=CC(=O)C=C[C@]4(C)[C@@]3(Cl)[C@@H](O)C[C@@]21C` [BDP Powder, Beclomethasone Dipropionate] showed a Purity ([1]; BETA IRRADIATION 0 KGy) of 99.73%, a Purity ([1]; BETA IRRADIATION 2 KGy) of 99.73% and a Purity ([1]; BETA IRRADIATION 4 KGy) of 99.66%. The Purity ([1]; BETA IRRADIATION 6 KGy) was 99.67%, the Purity ([1]; BETA IRRADIATION 8 KGy) was 99.51% and the Purity ([1]; BETA IRRADIATION 10 KGy) was 99.49%. For the same compound, the Purity ([1]; GAMMA IRRADIATION 0 KGy) was 99.73%, the Purity ([1]; GAMMA IRRADIATION 2 KGy) was 99.73% and the Purity ([1]; GAMMA IRRADIATION 4 KGy) was 99.68%. The Purity ([1]; GAMMA IRRADIATION 6 KGy) was 99.70%, the Purity ([1]; GAMMA IRRADIATION 8 KGy) was 99.07% and the “particle size distribution d(0.1)” value [2] was 0.44 µm. The “particle size distribution d(0.5)” value [2] was 1.13 µm and the “particle size distribution d(0.9)” value [2] was 2.42 µm.
